According to ChEMBL document CHEMBL1128834, “Potent mammalian topoisomerase II inhibitors: 1-cyclopropyl-6,8-difluoro-1,4-dihydro-7-(2,6-dimethyl-4-pyridinyl)-4-substituted-quinolines” (Bioorg Med Chem Lett, 1995):

Assays:
DNA topoisomerase II = DNA topoisomerase II (Homo sapiens, UniProt P11388+Q02880); assay: Inhibitory activity in a cell-free assay of DNA cleavage mediated by purified HeLa cell topoisomerase II.
P388 [1] = assay: In vitro cytotoxicity was determined by quantitating P388 murine leukemia cells on a coultier counter following a 48 hour exposure of cells to the test compound; format: functional, cell-based; conditions: Mus musculus, P388, 48 h
Mus musculus [2] = assay: In vivo antitumor activity was observed in mice at a dose of 96 mg/kg administered intravenously; format: functional; conditions: route intravenous
P388 [3] = assay: In vitro cytotoxicity was determined by quantitating P388 murine leukemia cells on a Coulter Counter following a 48 hour exposure of cells to the test compound; format: functional, cell-based; conditions: Mus musculus, P388, 48 h
P388 [4] = assay: In vitro cytotoxicity was determined by quantitating P388 murine leukemia cells on a oultier counter following a 48 hour exposure of cells to the test compound; format: functional, cell-based; conditions: Mus musculus, P388, 48 h
Mus musculus [5] = assay: In vivo antitumor activity was observed in mice at a dose of […] administered intravenously, subcutaneously; format: functional; conditions: route intravenous

Cc1cc(-c2c(F)cc3/c(=N/N4C(=O)c5ccccc5C4=O)ccn(C4CC4)c3c2F)cc(C)n1
EC50 (DNA topoisomerase II): 16 µM

Cc1cc(-c2c(F)cc3c(=O)ccn(C4CC4)c3c2F)cc(C)n1
IC50 (P388 [1]): 9.7 µM

Cc1cc(-c2c(F)cc3/c(=N/NC(N)=O)ccn(C4CC4)c3c2F)cc(C)n1
EC50 (DNA topoisomerase II): 3.1 µM

Cc1cc(-c2c(F)cc3/c(=N\O)ccn(C4CC4)c3c2F)cc(C)n1
EC50 (DNA topoisomerase II): 1.4 µM

Cc1cc(-c2c(F)cc3/c(=N/C4CC4)ccn(C4CC4)c3c2F)cc(C)n1
EC50 (DNA topoisomerase II): 2.4 µM

CCOC(=O)/C(C#N)=C1\C=CN(C2CC2)c2c1cc(F)c(-c1cc(C)nc(C)c1)c2F
EC50 (DNA topoisomerase II): 4.8 µM

Cc1cc(-c2c(F)cc3c(=S)ccn(C4CC4)c3c2F)cc(C)n1
EC50 (DNA topoisomerase II): 76 µM

COc1cc([C@@H]2c3cc4c(cc3[C@@H](O[C@@H]3O[C@@H]5CO[C@@H](C)O[C@H]5[C@H](O)[C@H]3O)[C@H]3COC(=O)[C@H]23)OCO4)cc(OC)c1O [ETOPOSIDE]
T/C (Mus musculus [2]): 3%
IC50 (P388 [3]): 0.12 µM

CC(=O)N/N=c1\ccn(C2CC2)c2c(F)c(-c3cc(C)nc(C)c3)c(F)cc12
EC50 (DNA topoisomerase II): 20 µM

Cc1cc(-c2c(F)cc3/c(=N/c4ccccc4O)ccn(C4CC4)c3c2F)cc(C)n1
EC50 (DNA topoisomerase II): 1.6 µM

Cc1cc(-c2c(F)cc3c4nn(-c5ccccc5)c(=O)c-4cn(C4CC4)c3c2F)cc(C)n1
EC50 (DNA topoisomerase II; read-out: EC50): 2.7 µM

Cc1cc(-c2c(F)cc3/c(=N/Sc4ccccn4)ccn(C4CC4)c3c2F)cc(C)n1
EC50 (DNA topoisomerase II): 3.8 µM

Cc1cc(-c2c(F)cc3/c(=N/c4ccccn4)ccn(C4CC4)c3c2F)cc(C)n1
EC50 (DNA topoisomerase II): 3.6 µM

Cc1ccc(S(=O)(=O)/N=c2\ccn(C3CC3)c3c(F)c(-c4cc(C)nc(C)c4)c(F)cc23)cc1
EC50 (DNA topoisomerase II): 45 µM

Cc1cc(-c2c(F)cc3/c(=N/CCN(C)C)ccn(C4CC4)c3c2F)cc(C)n1
EC50 (DNA topoisomerase II): 14 µM

CN/N=c1\ccn(C2CC2)c2c(F)c(-c3cc(C)nc(C)c3)c(F)cc12
EC50 (DNA topoisomerase II): 1.9 µM

Cc1cc(-c2c(F)cc3c(c2F)N(C2CC2)C=C/C3=C/C#N)cc(C)n1
EC50 (DNA topoisomerase II): 4 µM

Cc1cc(-c2c(F)cc3/c(=N/Nc4c5ccccc5nc5ccccc45)ccn(C4CC4)c3c2F)cc(C)n1
EC50 (DNA topoisomerase II): 21 µM

CO/N=c1/ccn(C2CC2)c2c(F)c(-c3cc(C)nc(C)c3)c(F)cc12
EC50 (DNA topoisomerase II): 2.6 µM

Cc1cc(-c2c(F)cc3/c(=N/c4ccc(N)cc4)ccn(C4CC4)c3c2F)cc(C)n1
EC50 (DNA topoisomerase II): 7.6 µM

Cc1cc(-c2c(F)cc3c(=N)ccn(C4CC4)c3c2F)cc(C)n1
EC50 (DNA topoisomerase II): 12 µM

Cc1cc(-c2c(F)cc3/c(=N/Sc4ccc(Cl)cc4)ccn(C4CC4)c3c2F)cc(C)n1
EC50 (DNA topoisomerase II): 9.4 µM

Cc1cc(-c2c(F)cc3/c(=N/N)ccn(C4CC4)c3c2F)cc(C)n1
IC50 (P388 [4]): 3 µM
EC50 (DNA topoisomerase II): 1.7 µM

Cc1cc(-c2c(F)cc3/c(=N/N(C)C)ccn(C4CC4)c3c2F)cc(C)n1
EC50 (DNA topoisomerase II): 2.3 µM
IC50 (P388 [1]): 0.27 µM

Cc1cc(-c2c(F)cc3/c(=N/Nc4cnc5ccccc5c4)ccn(C4CC4)c3c2F)cc(C)n1
EC50 (DNA topoisomerase II): 92 µM

Cc1cc(-c2c(F)cc3/c(=N/CCCN(C)C)ccn(C4CC4)c3c2F)cc(C)n1
EC50 (DNA topoisomerase II): 5.5 µM

Cc1cc(-c2c(F)cc3c(c2F)N(C2CC2)C=CC3=C(C#N)C#N)cc(C)n1
EC50 (DNA topoisomerase II): 6.3 µM

Cc1cc(-c2c(F)cc3/c(=N/Nc4ccccn4)ccn(C4CC4)c3c2F)cc(C)n1
EC50 (DNA topoisomerase II): 0.98 µM
IC50 (P388 [1]): 1 µM
T/C (Mus musculus [5]): 37%

Cc1cc(-c2c(F)cc3/c(=N/NCCO)ccn(C4CC4)c3c2F)cc(C)n1
EC50 (DNA topoisomerase II): 3.2 µM
